Columns and labels:
[1] = system: Pseudomonas aeruginosa PAM 1723 strain highly expressing the drug efflux pump; assay: Effect of combined use with antimicrobial agent (levofloxacin, aztreonam) on multidrug resistant Pseudomonas aeruginosa; type: cell-based; details: 18 hours, MHB; for MPC8 AZT: minimum concentration of test compound required to enhance antibacterial activity of aztreonam at 1/8 or less of MIC; for MPC4 LVFX: minimum concentration of test compound required to enhance antibacterial activity of levofloxacin applied at 1/4 of MIC; for MPC8 LVFX: minimum concentration of test compound required to enhance antibacterial activity of levofloxacin applied at 1/8 or less of MIC
Source text: Effect of Combined Use with Antimicrobial Agent on Multidrug Resistant Pseudomonas aeruginosa
As multidrug resistant Pseudomonas aeruginosa, Pseudomonas aeruginosa PAM 1723 strain highly expressing the drug efflux pump was used. As antimicrobial drugs for the combinational uses, levofloxacin (LVFX) as a quinolone antibacterial agent and aztreonam (AZT) as a monobactam antibiotic were used. Each of the compounds shown in Table 1 with Example No., which falls within the compounds of the present invention, was subjected to the measurement of its minimum concentration (μg/ml) that was required to enhance the antibacterial activity of levofloxacin when the test compound was used in combination with levofloxacin applied at a concentration of 1/4, or 1/8 or less of the minimum inhibitory concentration against the PAM 1723 strain. […] Effects as combinational uses for 18 hours was indicated for each of the drugs. Effects were determined by visually observing the turbidity of the medium. The Müller-Hinton broth (MHB, Difco) was used as a medium, and the inoculum of the bacteria was 1×10^6 CFU/ml.

[2] = system: Pseudomonas aeruginosa wild strain PAM 1020; assay: Combined use of a pump inhibitor, levofloxacin (LVFX) and meropenem (MEPM) evaluated by the three-dimensional checker board method; type: cell-based; details: for MIC: Pseudomonas aeruginosa, agent used alone, PAM 1020 strain
Procedure: (1) Effect of Combined Used of a Pump Inhibitor, Levofloxacin (LVFX) and Meropenem (MEPM) Evaluated by the Three-Dimensional Checker Board Method
The effect was measured by the three-dimensional checker board method by using Pseudomonas aeruginosa wild strain PAM 1020. The test strain was inoculated into Mueller-Hinton broth containing LVFX, MEPM (at 11 concentration levels and 0 μg/ml) and the compound of Example 26 (40-0.625 μg/ml and 0 μg/ml) at a concentration of 10^6 CFU/ml and cultured at 37° C. for 18 hours. Then, MIC was measured for sole and combined use. Measurement was performed by the checker board method and FIC index was calculated according to the following equation. FIC index=a/a0+b/b0+c/c0 wherein a0: MIC for Agent A used alone, a: MIC for Agent A when Agents A, B and C are used in combination, b0: MIC for Agent B used alone, b: MIC for Agent B when Agents A, B and C are used in combination, c0: MIC for Agent C used alone, c: MIC for Agent C when Agents A, B and C are used in combination.
It was determined that there was synergistic effect when FIC index was 0.75 or less, additive effect or weak synergistic effect when the index was more than 0.75 but not more than 1.125, no effect of combined use when the index was more than 1.125 but not more than 3.0, and antagonistic effect when the index was more than 3.0.

CC(C)c1csc(COc2ccn3c(=O)c(/C=C/C(=O)O)c(N4CCCC(O)C4)nc3c2)n1 (centres unmarked) [Example 5, (E)-3-{2-(3-Hydroxypiperidino)-8-[(4-isopropyl-1,3-thiazol-2-yl)methoxy]-4-oxo-4H-pyrido[1,2-a]pyrimidin-3-yl}-2-propenoic acid]
MPC8 AZT [1]: 8 µg/mL | MPC4 LVFX [1]: 0.5 µg/mL | MPC8 LVFX [1]: 8 µg/mL

CC(C)(C)c1csc(NC(=O)c2ccn3c(=O)c(-c4nnn[nH]4)cnc3c2)n1 [Example 10, N8-[4-(tert-Butyl)-1,3-thiazol-2-yl]-4-oxo-3-(2H-1,2,3,4-tetrazol-5-yl)-4H-pyrido[1,2-a]pyrimidine-8-carboxamide]
MPC8 AZT [1]: 4 µg/mL | MPC4 LVFX [1]: 2 µg/mL | MPC8 LVFX [1]: 16 µg/mL

CC(C)(C)c1csc(NC(=O)c2ccn3c(=O)c(/C=C/C(=O)O)c(N4CCC[C@@H](OC(N)=O)C4)nc3c2)n1 [Example 18, (E)-3-[2-{(3R)-3-[(Aminocarbonyl)oxy]hexahydro-1-pyridinyl}-8-({[4-(tert-butyl)-1,3-thiazol-2-yl]amino}carbonyl)-4-oxo-4H-pyrido[1,2-a]pyrimidin-3-yl]-2-propenoic acid]
MPC8 AZT [1]: 0.5 µg/mL | MPC4 LVFX [1]: ≦0.25 μg/ml | MPC8 LVFX [1]: 1 µg/mL

CC(C)c1csc(/C=C/c2ccn3c(=O)c(/C=C/C(=O)O)c(N4CCN(C(=O)[C@@H](N)CCCNC(=N)N)CC4)nc3c2)n1 [Example 78, (E)-3-{2-[4-((2 S)-2-Amino-5-{[amino(imino)methyl]amino}pentanoyl)-piperazino]-8-[(E)-2-(4-isopropyl-1,3-thiazol-2-yl)-1-ethenyl]-4-oxo-4H-pyrido[1,2-a]-pyrimidin-3-yl}-2-propenoic acid]
MPC8 AZT [1]: 1 µg/mL | MPC4 LVFX [1]: 0.5 µg/mL | MPC8 LVFX [1]: 1 µg/mL

CC(C)c1csc(CCc2ccn3c(=O)c(/C=C/C(=O)[O-])c(N4CCN(C(=O)C[N+]56CCC(CC5)CC6)CC4)nc3c2)n1 [Example 94, (E)-3-{2-4-[2-(1-Azabicyclo[2.2.2]oct-1-yl)acetyl]piperazino-8-[2-(4-isopropyl-1,3-thiazol-2-yl)ethyl]-4-oxo-4H-pyrido[1,2-a]pyrimidin-3-yl}-2-propenoic acid]
MPC8 AZT [1]: 16 µg/mL | MPC4 LVFX [1]: 4 µg/mL | MPC8 LVFX [1]: 16 µg/mL

CC(C)c1csc(CCc2ccn3c(=O)c(/C=C/C(=O)NS(C)(=O)=O)c(N4CCOCC4)nc3c2)n1 [Example 98, N-((E)-3-{8-[2-(4-Isopropyl-1,3-thiazol-2-yl)ethyl]-2-morpholino-4-oxo-4H -pyrido[1,2-a]pyrimidin-3-yl}-2-propenoyl)methanesulfonamide]
MPC8 AZT [1]: 4 µg/mL | MPC4 LVFX [1]: 1 µg/mL | MPC8 LVFX [1]: 4 µg/mL

C[C@H]1COc2c(N3CCN(C)CC3)c(F)cc3c(=O)c(C(=O)O)cn1c23 [LVFX, levofloxacin]
FIC index ([2]; LVFX + MEPM 0.016 μg/ml, compound of Example 26 0 μg/ml, PAM 1020): 1.031 | FIC index ([2]; LVFX + MEPM 0.0313 μg/ml, compound of Example 26 0 μg/ml, PAM 1020): 1.0625 | FIC index ([2]; LVFX + MEPM 0.0625 μg/ml, compound of Example 26 0 μg/ml, PAM 1020): 1.125 | FIC index ([2]; LVFX + MEPM 0.125 μg/ml, compound of Example 26 0 μg/ml, PAM 1020): 1.250 | FIC index ([2]; LVFX + MEPM 0.25 μg/ml, compound of Example 26 0 μg/ml, PAM 1020): 1.5 | LVFX conc. ([2]; LVFX conc. in combination with MEPM 0.016 μg/ml and compound of Example 26 0.625 μg/ml, PAM 1020): 0.25 µg/mL | LVFX conc. ([2]; LVFX conc. in combination with MEPM 0.016 μg/ml and compound of Example 26 1.25 μg/ml, PAM 1020): 0.25 µg/mL | LVFX conc. ([2]; LVFX conc. in combination with MEPM 0.016 μg/ml and compound of Example 26 2.5 μg/ml, PAM 1020): 0.25 µg/mL | LVFX conc. ([2]; LVFX conc. in combination with MEPM 0.016 μg/ml and compound of Example 26 5 μg/ml, PAM 1020): 0.125 µg/mL | LVFX conc. ([2]; LVFX conc. in combination with MEPM 0.016 μg/ml and compound of Example 26 10 μg/ml, PAM 1020): 0.125 µg/mL | LVFX conc. ([2]; LVFX conc. in combination with MEPM 0.016 μg/ml and compound of Example 26 20 μg/ml, PAM 1020): 0.125 µg/mL | LVFX conc. ([2]; LVFX conc. in combination with MEPM 0.016 μg/ml and compound of Example 26 40 μg/ml, PAM 1020): 0.125 µg/mL | LVFX conc. ([2]; LVFX conc. in combination with MEPM 0.016 μg/ml, compound of Example 26 0 μg/ml, PAM 1020): 0.25 µg/mL | LVFX conc. ([2]; LVFX conc. in combination with MEPM 0.0313 μg/ml and compound of Example 26 0.625 μg/ml, PAM 1020): 0.25 µg/mL | LVFX conc. ([2]; LVFX conc. in combination with MEPM 0.0313 μg/ml and compound of Example 26 1.25 μg/ml, PAM 1020): 0.25 µg/mL | LVFX conc. ([2]; LVFX conc. in combination with MEPM 0.0313 μg/ml and compound of Example 26 2.5 μg/ml, PAM 1020): 0.125 µg/mL | LVFX conc. ([2]; LVFX conc. in combination with MEPM 0.0313 μg/ml and compound of Example 26 5 μg/ml, PAM 1020): 0.125 µg/mL | LVFX conc. ([2]; LVFX conc. in combination with MEPM 0.0313 μg/ml and compound of Example 26 10 μg/ml, PAM 1020): 0.125 µg/mL | LVFX conc. ([2]; LVFX conc. in combination with MEPM 0.0313 μg/ml and compound of Example 26 20 μg/ml, PAM 1020): 0.125 µg/mL | LVFX conc. ([2]; LVFX conc. in combination with MEPM 0.0313 μg/ml and compound of Example 26 40 μg/ml, PAM 1020): 0.125 µg/mL | LVFX conc. ([2]; LVFX conc. in combination with MEPM 0.0313 μg/ml, compound of Example 26 0 μg/ml, PAM 1020): 0.25 µg/mL | LVFX conc. ([2]; LVFX conc. in combination with MEPM 0.0625 μg/ml and compound of Example 26 0.625 μg/ml, PAM 1020): 0.25 µg/mL | LVFX conc. ([2]; LVFX conc. in combination with MEPM 0.0625 μg/ml and compound of Example 26 1.25 μg/ml, PAM 1020): 0.125 µg/mL | LVFX conc. ([2]; LVFX conc. in combination with MEPM 0.0625 μg/ml and compound of Example 26 2.5 μg/ml, PAM 1020): 0.125 µg/mL | LVFX conc. ([2]; LVFX conc. in combination with MEPM 0.0625 μg/ml and compound of Example 26 5 μg/ml, PAM 1020): 0.0625 µg/mL | LVFX conc. ([2]; LVFX conc. in combination with MEPM 0.0625 μg/ml and compound of Example 26 10 μg/ml, PAM 1020): 0.0625 µg/mL | LVFX conc. ([2]; LVFX conc. in combination with MEPM 0.0625 μg/ml and compound of Example 26 20 μg/ml, PAM 1020): 0.0313 µg/mL | LVFX conc. ([2]; LVFX conc. in combination with MEPM 0.0625 μg/ml and compound of Example 26 40 μg/ml, PAM 1020): 0.0313 µg/mL | LVFX conc. ([2]; LVFX conc. in combination with MEPM 0.0625 μg/ml, compound of Example 26 0 μg/ml, PAM 1020): 0.25 µg/mL | LVFX conc. ([2]; LVFX conc. in combination with MEPM 0.125 μg/ml and compound of Example 26 0.625 μg/ml, PAM 1020): 0.125 µg/mL | LVFX conc. ([2]; LVFX conc. in combination with MEPM 0.125 μg/ml and compound of Example 26 1.25 μg/ml, PAM 1020): 0.0625 µg/mL | LVFX conc. ([2]; LVFX conc. in combination with MEPM 0.125 μg/ml and compound of Example 26 2.5 μg/ml, PAM 1020): 0.0313 µg/mL | LVFX conc. ([2]; LVFX conc. in combination with MEPM 0.125 μg/ml and compound of Example 26 5 μg/ml, PAM 1020): 0.0156 µg/mL | LVFX conc. ([2]; LVFX conc. in combination with MEPM 0.125 μg/ml and compound of Example 26 10 μg/ml, PAM 1020): 0.0039 µg/mL | LVFX conc. ([2]; LVFX conc. in combination with MEPM 0.125 μg/ml, compound of Example 26 0 μg/ml, PAM 1020): 0.25 µg/mL | LVFX conc. ([2]; LVFX conc. in combination with MEPM 0.25 μg/ml and compound of Example 26 0.625 μg/ml, PAM 1020): 0.0078 µg/mL | LVFX conc. ([2]; LVFX conc. in combination with MEPM 0.25 μg/ml, compound of Example 26 0 μg/ml, PAM 1020): 2 µg/mL | MIC [2]: 0.25 µg/mL

C[C@@H](O)[C@H]1C(=O)N2C(C(=O)O)=C(S[C@@H]3CN[C@H](C(=O)N(C)C)C3)[C@H](C)[C@H]12 [MEPM, Meropenem]
effect of combined use of three types of drugs ([2]; LVFX, MEPM and compound of Example 26 0.625-40 μg/ml, PAM 1020): apparent effects of the addition of MEPM were observed | MIC [2]: 0.5 µg/mL | effect of MEPM on the combined use of two types of drugs, LVFX and the compound of Example 26 ([2]; compound of Example 26 0.625-40 μg/ml, PAM 1020): effects of the addition of MEPM were clearly observed

From patent publication US7056917B2, “Drug efflux pump inhibitor” (Daiichi Pharmaceutical Co., Ltd., priority 2001, dated 2006)
